Results: patent publication US9045505B2, “Nitric oxide donors” (University of Otago, priority 2006, dated 2015)

How the values were obtained:
liver mitochondria = test: Metabolism of MitoSNAP by mitochondria (RP-HPLC of supernatant); type: in vitro ADME, rat
Experimental: FIG. 9 is a series of traces and graphs showing membrane potential-dependent MitoSNAP mitochondrial uptake and NO^• generation. (a-d) Liver mitochondria were incubated in KCl medium supplemented with rotenone in a stirred 3 ml chamber and electrodes were used to measure the concentrations of O2 and NO^• simultaneously. Where indicated succinate (10 mM), OxyHb (5 μM) or FCCP (500 nM) were added. For (a) and (b) 2 mg mitochondrial protein/ml and 20 μM MitoSNAP (a) or SNAP (b) were used. For (c) and (d) 0.5 mg mitochondrial protein/ml and 5 μM MitoSNAP were used. There was no effect of 5 μM MitoNAP on respiration or NO^• production. All traces are from typical experiments repeated at least twice. […] Mitochondria were then pelleted by centrifugation (10,000×g) then aliquots of the supernatant (700 μl) were mixed with 700 μl 0.1% TFA and analyzed by RP-HPLC. The amount of MitoSNAP and MitoNAP were calculated as the percentage of their peak areas relative to the sum of both peak areas.
MitoSNAP, MitoNAP and their derivatives were separated by reverse phase HPLC (RP-HPLC) on a C18 column (Jupiter 300 Å, Phenomenex) with a Widepore C18 guard column (Phenomenex), using a Gilson 321 pump. […] Peaks were detected at 220 nm using a Gilson UV/VIS 151 spectrophotometer. […]

[1] = Reaction with GSH and half-life in the cytosol; type: physicochemical; conditions: cytosol (estimated) with 5 mM GSH; physiological GSH concentration of 5 mM
Experimental: The uptake of alkylTPP molecules into mitochondria within cells is rapid, equilibrating within 5-10 min (Ross, M. F. et al. Rapid and extensive uptake and activation of hydrophobic triphenylphosphonium cations within cells. Biochem. J. 411, 633-645 (2008)), and the rate limiting step is passage across the plasma membrane with rapid subsequent uptake into mitochondria (Ross, M. F. et al. Rapid and extensive uptake and activation of hydrophobic triphenylphosphonium cations within cells. Biochem. J. 411, 633-645 (2008) and Smith, R. A., Kelso, G. F., James, A. M. & Murphy, M. P. Targeting coenzyme Q derivatives to mitochondria. Meth. Enzymol. 382, 45-67 (2004)). Consequently, once through the plasma membrane, MitoSNAP should remain in the cytosol for a very short time before uptake into mitochondria. The rate of reaction of GSH with SNAP is 5.4 M^−1.s^−1 (Hogg, N. The kinetics of S-transnitrosation-a reversible second-order reaction. Anal. Biochem. 272, 257-62 (1999)). While other pathways of MitoSNAP decay in the cytosol may also contribute, GSH is likely to be the major one and at a physiological GSH concentration of 5 mM the half-life for MitoSNAP in the cytosol should be ˜25 s, giving plenty of time for MitoSNAP uptake into mitochondria. […]

Which results are given for CC(=O)NC(C(=O)NCCCCC[P+](c1ccccc1)(c1ccccc1)c1ccccc1)C(C)(C)SN=O.CS(=O)(=O)[O-] (stereo not drawn) [MitoSNAP, [5-(2-acetylamino-3-methyl-3-nitrosothio-butyrylamino)-penty1]-triphenylphosphonium methanesulfonate]?
conversion of MitoSNAP to MitoNAP (liver mitochondria; energized mitochondria): rapidly consumed; conversion of MitoSNAP to MitoNAP (liver mitochondria; unenergized mitochondria (FCCP), compared with energized): slower; half-life [1]: ~25 s
